According to ChEMBL document CHEMBL1147639, “Quinolines as extremely potent and selective PDE5 inhibitors as potential agents for treatment of erectile dysfunction” (Bioorg Med Chem Lett, 2004):

Assays:
[1] = molecular target: Phosphodiesterase 6; assay: Inhibition of phosphodiesterase 6; type: protein assay
[2] = molecular target: Phosphodiesterase 1 (Bos taurus, UniProt Q01061+P14100); assay: Inhibition of phosphodiesterase 1 of bovine heart; type: protein assay
[3] = molecular target: Phosphodiesterase 3 (Homo sapiens, UniProt Q14432+Q13370); assay: Inhibitory activity of compound against phosphodiesterase 3 was tested; type: protein assay
[4] = molecular target: cGMP-specific 3',5'-cyclic phosphodiesterase (Homo sapiens, UniProt O76074); assay: Inhibition of phosphodiesterase 5 from human platelets
[5] = Inhibition of phosphodiesterase 4
[6] = Relative inhibition of bovine heart PDE1 and human platelet PDE5
[7] = Relative inhibition of bovine retina PDE6 and human platelet PDE 5
[8] = Relative inhibition of rat kidney PDE2 and human platelet PDE 5
[9] = Relative inhibition of rat kidney PDE4 and human platelet PDE 5
[10] = molecular target: cGMP-dependent 3',5'-cyclic phosphodiesterase (Rattus norvegicus) (UniProt Q01062); assay: Inhibition of phosphodiesterase 2
Sequence of cGMP-dependent 3',5'-cyclic phosphodiesterase (Rattus norvegicus) (Q01062 whole entry, looked up): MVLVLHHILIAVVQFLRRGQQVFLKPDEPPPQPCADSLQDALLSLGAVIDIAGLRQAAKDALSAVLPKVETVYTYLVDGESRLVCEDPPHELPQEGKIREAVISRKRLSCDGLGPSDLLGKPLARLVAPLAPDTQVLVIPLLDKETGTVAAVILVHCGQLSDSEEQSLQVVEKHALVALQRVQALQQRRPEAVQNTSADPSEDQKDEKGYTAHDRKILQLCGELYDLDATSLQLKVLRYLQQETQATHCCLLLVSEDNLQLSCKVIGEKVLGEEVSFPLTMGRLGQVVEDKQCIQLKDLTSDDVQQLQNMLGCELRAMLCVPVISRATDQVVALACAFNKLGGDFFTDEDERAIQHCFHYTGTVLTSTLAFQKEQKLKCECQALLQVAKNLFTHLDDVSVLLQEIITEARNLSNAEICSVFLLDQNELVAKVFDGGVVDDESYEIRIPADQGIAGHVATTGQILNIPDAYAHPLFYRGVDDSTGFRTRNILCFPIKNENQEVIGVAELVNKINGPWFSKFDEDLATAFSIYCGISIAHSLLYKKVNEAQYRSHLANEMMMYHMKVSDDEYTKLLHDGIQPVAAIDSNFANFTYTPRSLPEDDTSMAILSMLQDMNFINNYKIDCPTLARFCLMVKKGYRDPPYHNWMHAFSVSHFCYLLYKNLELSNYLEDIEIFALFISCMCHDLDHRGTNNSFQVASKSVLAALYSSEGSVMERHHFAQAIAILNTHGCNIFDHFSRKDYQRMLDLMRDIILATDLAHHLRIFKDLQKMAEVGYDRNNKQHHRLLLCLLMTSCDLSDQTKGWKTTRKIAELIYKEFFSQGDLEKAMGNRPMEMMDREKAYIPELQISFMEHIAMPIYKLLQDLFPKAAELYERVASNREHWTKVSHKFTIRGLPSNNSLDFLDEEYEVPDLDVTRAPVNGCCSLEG

Row | IC50 [1] [nM] | IC50 [2] [nM] | IC50 [3] [nM] | IC50 [4] [nM] | IC50 [5] [nM] | Selectivity ratio [6] | Selectivity ratio [7] | Selectivity ratio [8] | Selectivity ratio [9] | IC50 [10] [nM] | SMILES
1 | – | – | – | 1.4 | – | 6400 | 29 | > 100000 | 3500 | – | COc1ccc(CNc2ccnc3ccc(C#N)cc23)cc1Cl
2 | – | – | – | 0.05 | – | > 1e+06 | 7800 | > 100000 | – | – | CCc1cc(C#N)cc2c(NCc3ccc(OC)c(Cl)c3)c(CO)cnc12
3 | – | – | – | – | – | – | 15 | > 100000 | 3800 | – | CCOC(=O)c1cnc2ccc(C#N)cc2c1NCc1ccc(OC)c(Cl)c1
4 | – | – | – | 1.3 | – | > 100000 | 64 | > 100000 | 3100 | – | COc1ccc(CNc2c(C(=O)NCc3ccccn3)cnc3ccc(C#N)cc23)cc1Cl
5 | – | – | – | 0.48 | – | > 100000 | 23 | 8600 | > 100000 | – | COc1ccc(CNc2c(CO)cnc3ccc(C#N)cc23)cc1Cl
6 | – | – | – | – | – | – | 40 | – | 2200 | – | CCc1cc(C#N)cc2c(NCc3ccc(OC)c(Cl)c3)ccnc12

More lines, now with the values behind:

Row | SMILES | IC50 [1] [nM] | IC50 [2] [nM] | IC50 [3] [nM] | IC50 [4] [nM] | IC50 [5] [nM] | Selectivity ratio [6] | Selectivity ratio [7] | Selectivity ratio [8] | Selectivity ratio [9] | IC50 [10] [nM]
7 | CCOC(=O)c1cnc2cc(C(F)(F)F)ccc2c1NCc1ccc(OC)c(Cl)c1 | 20000 | > 50000 | > 50000 | 160 | > 50000 | > 310 | 125 | > 310 | > 310 | > 50000
8 | CCOC(=O)c1cnc2c(CC)cc(C#N)cc2c1NCc1ccc(OC)c(Cl)c1 | – | – | – | 0.6 | – | > 100000 | 110 | > 100000 | > 100000 | –
9 | CCc1cc(C#N)cc2c(NCc3ccc(OC)c(Cl)c3)c(C(=O)NCc3ccccn3)cnc12 | – | – | – | 0.55 | – | – | 82 | – | 4500 | –
10 | CCOC(=O)c1cnc2ccc(C(F)(F)F)cc2c1NCc1ccc(OC)c(Cl)c1 | – | – | – | 73 | – | > 680 | 75 | > 680 | 247 | –
